In experiment [1] the test system is lung cancer cells. Kind of experiment: Cell proliferation (CyQuant), lung cancer cells overall. The class given is cell-based. The text has this:
(FIG. 5A) Chemical structure of compounds 12, an analogue of 11 lacking the terminal methyl alcohol functional group. (FIG. 5B) Predicted binding pose of compound 12. (FIG. 5C) p-ERK and p-cRaf levels in BHK cells expressing KRAS^G12D treated with indicated concentrations of compound 12 or vehicle. (FIG. 5D) Proliferation profile of lung cancer cells upon treatment with increasing concentration of compound 12, monitored by a CyQuant assay. Data are averages over three independent experiments and error bars represent standard error. (FIG. 5E) GFP fluorescence lifetime from FLIM-FRET using cells expressing GFP-KRAS^G12D alone or together with RFP-cRaf, with or without treatment with 2 μM compound 12.
(§1) Cell proliferation. Potential effect of the ligands on cancer cell proliferation was tested in three lung cancer cells: SKLU-1, H1975 and H522. Cells were plated at ˜1,000 cell per well in a 96-well plate and maintained in full serum media with or without compound at 37° C. for 72 h changing the media with the compound every 24 h. Media with compound was prepared by serial dilution at concentrations indicated. Then cells were washed with PBS and frozen at −80° C. for a minimum of 24 h. Plates were thawed and CyQuant™ dye (in lysis buffer provided in the CyQuant™ cell proliferation assay kit, Invitrogen™) was added, and after a five-minute incubation, fluorescence (excitation: 480 nm emission: 520 nm) was measured with a Tecan Infinite M200 plate reader.

The target in experiment [2] is Rap1B (Homo sapiens, UniProt P61224). In words: MST binding, control Rap1B. As to conditions: control small GTPase. The text has this:
(§2) FIGS. 1A-1D show representative data for the predicted binding mode and measured affinity of disclosed compound 11 to KRAS. (FIG. 1A) Structure of the catalytic domain of KRAS used for the virtual screening. Lobe1 (residues 1-86) and lobe2 (residues 87-166) are highlighted in different colors, as well as switches 1 (residues 30-40) and 2 (residues 60-75). The location of the target allosteric pocket p1 is indicated. (FIG. 1B) Chemical structure of compound 11. (FIG. 1C) Predicted binding pose of compound 11, with the key residues that make polar or vdW contacts with the ligand labeled. (FIG. 1D) Microscale thermophoresis (MST) experiments indicating direct binding of compound 11 to KRAS, along with dissociation constants (KD) derived from the curves. Changes in fluorescence upon titration of […] KRAS with increasing concentration of compound are shown: KRAS^WT (red), KRAS^G12C (green), KRAS^G12D (purple) and KRAS^Q61M (blue), each bound to the non-hydrolyzable GTP analogue, guanylyl imidodiphosphate (GNP). The same experiments indicated no binding to GDP-bound KRAS^G12D and KRAS^WT as well as Rap1B, which was used as control. […]

Experiment [3] addresses GTPKRAS^WT (Homo sapiens, UniProt P01116). Kind of experiment: Microscale thermophoresis (MST) binding, GTP-state (GNP-bound) KRAS WT.
Text: as §2

Experiment [4] has as its system SKLU-1 (KRAS^G12D) lung cancer cells. Kind of experiment: Cell proliferation (CyQuant), SKLU-1. It counts as cell-based. As to conditions: 72 h. How it is done:
as §1

Entries after “also recorded” stand apart in the source; their conditions may differ.

A word on the Kd: it is the constant that tells how readily two partners part at equilibrium. Low values mean higher affinity, high ones lower affinity.

GTPKRAS^WT, sequence (P01116 1-188 isoform P01116-2): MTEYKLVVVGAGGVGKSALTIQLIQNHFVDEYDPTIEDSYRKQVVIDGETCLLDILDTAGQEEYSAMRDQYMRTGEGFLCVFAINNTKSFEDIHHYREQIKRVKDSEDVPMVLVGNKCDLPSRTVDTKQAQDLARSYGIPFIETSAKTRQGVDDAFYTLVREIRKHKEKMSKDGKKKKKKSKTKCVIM
Rap1B, sequence (P61224 whole entry, species assumed, the tested form may be a part): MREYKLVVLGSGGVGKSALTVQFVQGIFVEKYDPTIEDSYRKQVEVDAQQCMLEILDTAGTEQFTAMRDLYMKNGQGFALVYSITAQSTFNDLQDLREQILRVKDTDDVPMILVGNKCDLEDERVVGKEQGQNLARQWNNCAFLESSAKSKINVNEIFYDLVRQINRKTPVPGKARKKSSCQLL

As for `Cc1nn2c(N3CCN(CCO)CC3)cc(-c3ccccc3)nc2c1-c1ccccc1` [Compound 11, 2-[4-(8-methyl-3,9-diphenyl-2,6,7-triazabicyclo[4.3.0]nona-2,4,7,9-tetraen-5-yl)piperazin-1-yl]ethanol], the “selectivity between KRAS mutant and KRAS^WT lung cancer cells” value in experiment [1] is “no significant difference”. Moreover, the “binding (in words)” value in experiment [2] is “no binding”. The same compound registered a Kd in experiment [3] of about 300 nM. For the same compound, the sensitivity of proliferation entry in experiment [4] is “slightly more sensitive; also recorded: especially responsive”.

These data come from patent publication US12251383B2, “Methods and compositions for KRAS inhibitors” (The Board of Regents of the University of Texas System, priority 2019, dated 2025).
